Results from patent US6800637B2, “Antidepressant indolealkyl derivatives of heterocycle-fused benzodioxan methylamines” (Wyeth, priority 2002, dated 2004).
Structures can show the parent of a compound that is named as a salt.

With `Cc1ccc2c3c(ccc2n1)OCC(CNCCc1csc2ccccc12)O3` (stereo not shown) (as salt: fumarate) [Example 21, N-[2-(1-Benzothien-3-yl)ethyl]-N-(8-methyl-2,3-dihydro-[1,4]dioxino[2,3-f]quinolin-2-ylmethyl)amine] the melting point was 124 to 127 °C.
`Cc1ccc2c3c(ccc2n1)OC[C@H](CN(C)CCCc1csc2ccccc12)O3` (as salt: fumarate) [Example 22, N-[3-(1-Benzothien-3-yl)propyl]-N-methyl-N-(8-mthyl-2,3-dihydro-[1,4]dioxino[2,3-f]quinolin-2-ylmthyl)amin] showed a melting point of 123 to 127 °C.
`Cc1ccc2c3c(ccc2n1)OCC(CNCCCCc1coc2ccccc12)O3` (stereo not shown) (as salt: fumarate) [Example 28, N-[4-(1-Benzofuran-3-yl)butyl]-N-(8-methyl-2,3-dihydro-[1,4]dioxino[2,3-f]quinolin-2-ylmethyl)amine] gave a melting point of 127 to 130 °C.
`Cc1ccc2c3c(ccc2n1)OC[C@H](CNCCCCc1csc2ccc(Cl)cc12)O3` (as salt: fumarate) [Example 49] gave a melting point of 140 to 144 °C.
For `Cc1ccc2c3c(ccc2n1)OC[C@H](CNCCCc1csc2ccc(Cl)cc12)O3` (as salt: fumarate) [Example 50], the melting point was 193 to 196 °C.
For `Cc1ccc2c3c(ccc2n1)OC[C@H](CNCCCc1csc2ccc(F)cc12)O3` (as salt: fumarate) [Example 51, N-[3-(5-Fluoro-1-benzothien-3-yl)propyl]-N-{[(2S)-8-methyl-2,3-dihydro[1,4]dioxino[2,3-f]quinolin-2-yl]methyl}amine], the melting point was 117 to 120 °C.
Work on `CCN(CCCCc1coc2ccccc12)C[C@H]1COc2ccc3nc(C)ccc3c2O1` (as salt: fumarate) [Example 52, N-[4-(1-Benzofuran-3-yl)butyl]-N-ethyl-N-{[(2S)-8-methyl-2,3-dihydro[1,4]dioxino[2,3-f]quinolin-2-yl]methyl}amine] yielded a melting point of 87 to 92 °C.
In the case of `Fc1ccc2[nH]cc(CCCNC[C@H]3COc4ccc5ncccc5c4O3)c2c1` (as salt: hydrochloride) [Example 14, N-(2,3-Dihydro-[1,4]dioxino[2,3-f]quinolin-2-ylmthyl)-N-[3-(5-fluoro-1H-indol-3-yl)propyl]amine], the melting point is reported as 196 to 199 °C.
Work on `Cc1nc2ccc3c(c2o1)O[C@@H](CNCCCc1c[nH]c2ccc(F)cc12)CO3` (as salt: hydrochloride) [Example 23, N-[3-(5-Fluoro-1H-indol-3-yl)propyl]-N-(2-methyl-7,8-dihydro-[1,4]dioxino[2,3-g][1,3]benzoxazol-8-ylmethyl)amine] yielded a melting point of 91 to 93 °C.
`Cc1nc2ccc3c(c2o1)OC(CN(C)CCCc1c[nH]c2ccc(F)cc12)CO3` (stereo not shown) (as salt: hydrochloride) [Example 24, N-[3-(5-Fluoro-1H-indol-3-yl)propyl]-N-methyl-N-(2-methyl-7,8-dihydro[1,4]dioxino[2,3-g][1,3]benzoxazol-8-ylmethyl)amine] gave a melting point of 136 to 139 °C.
For `CCN(CCCc1c[nH]c2ccc(F)cc12)CC1COc2ccc3nc(C)ccc3c2O1` (stereo not shown) (as salt: hydrochloride) [Example 25, N-Ethyl-N-[3-(5-Fluoro-1H-indol-3-yl)propyl]-N-(8-methyl-2,3-dihydro-[1,4]dioxino[2,3-f]quinolin-2-ylmethyl)amine], the melting point was 158 to 175 °C.
For `Cc1ccc2c3c(ccc2n1)OCC(CN(C)CCCc1cn(C)c2c(F)cc(F)cc12)O3` (stereo not shown) (as salt: hydrochloride) [Example 27, N-[3-(5,7-Difluoro-1-methyl-1H-indol-3-yl)propyl]-N-methyl-N-(8-methyl-2,3-dihydro-[1,4]dioxino[2,3-f]quinolin-2-ylmethyl)amine], the melting point was 190 to 204 °C.
`Cc1ccc2c3c(ccc2n1)OCC(CNCCCc1c[nH]c2ccc(C#N)cc12)O3` (stereo not shown) (as salt: hydrochloride) [Example 29, 3-{3-[(8-Methyl-2,3-dihydro-[1,4]dioxino[2,3-f]quinolin-2-ylmethyl)-amino]-propyl}-1H-indole-5-carbonitrile] gave a melting point of 170 to 174 °C.
`Cc1nc2ccc3c(c2o1)O[C@@H](CNCCCc1c[nH]c2ccc(C#N)cc12)CO3` (as salt: hydrochloride) [Example 30, 3-{3-[(2-Methyl-7,8-dihydro-[1,4]dioxino[2,3-g][1,3]benzoxazol-8-ylmethyl)amino]-propyl}-1H-indole-5-carbanitrile] showed a melting point of 148 to 151 °C.
For `Cc1nc2ccc3c(c2o1)O[C@@H](CN(C)CCCc1c[nH]c2ccc(C#N)cc12)CO3` (as salt: hydrochloride) [Example 31, 3-{3-[M thyl-(2-methyl-7,8-dihydro-[1,4]dioxino[2,3[-g][1,3]benzoxazol-8-ylmethyl)-amino]-propyl)}-1H-indole-5-carbonitrile], the melting point was 140 °C (dec.).
In the case of `Cc1ccc2c3c(ccc2n1)OCC(CNCCCn1ccc2ccc(F)cc21)O3` (stereo not shown) (as salt: hydrochloride) [Example 33, [3-(6-Fluoro-indol-1-yl)-propyl]-(8-methyl-2,3-dihydro-[1,4]dioxino[2,3-f]quinolin-2-ylmethyl)amine], the melting point is reported as 154 to 156 °C.
With `Cc1ccc2c3c(ccc2n1)OCC(CN(C)CCCn1ccc2ccc(F)cc21)O3` (stereo not shown) (as salt: hydrochloride) [Example 34, [3-(6-Fluoro-indol-1-yl)-propyl]-methyl-(8-methyl-2,3-dihydro-[1,4]dioxino[2,3-f]quinolin-2-ylmethyl)-amine] the melting point was 75.9 to 83.7 °C.
For `Cc1ccc2c3c(ccc2n1)OCC(CNCCCCc1cn(C)c2ccc(F)cc12)O3` (stereo not shown) (as salt: hydrochloride) [Example 35, [4-(5-Fluoro-1-methyl-1H-indol-3-yl)-butyl]-(8-methyl-2,3-dihydro-[1,4]dioxino[2,3-f]quinolin-2-ylmethyl)-amine], the melting point was 229 to 235 °C.
With `CCN(CCCc1c[nH]c2ccc(F)cc12)C[C@H]1COc2ccc3nc(C)oc3c2O1` (as salt: hydrochloride) [Example 36, Ethyl-[3-(5-fluoro-1H-indol-3-yl)-propyl]-(2-methyl-7,8-dihydro-[1,4]dioxino[2,3-g][1,3]benzoxazol-8-ylmethyl)-amine] the melting point was 115 °C (dec.).
In the case of `Cc1ccc2c3c(ccc2n1)OCC(CNCCCCn1ccc2ccc(F)cc21)O3` (stereo not shown) (as salt: hydrochloride) [Example 38, [4-(6-Fluoro-indol-1-yl)-butyl]-(8-methyl-2,3-dihydro-[1,4]dioxino[2,3-f]quinolin-2-ylmethyl)-amine], the melting point is reported as 122 to 127 °C.
`Cc1ccc2c3c(ccc2n1)OCC(CN(C)CCCc1cn(C)c2ccc(F)cc12)O3` (stereo not shown) (as salt: hydrochloride) [Example 42, [3-(5-Fluoro-1-methyl-1H-indol-3-yl)-propyl]-methyl-(8-methyl-2,3-dihydro-[1,4]dioxino[2,3-f]quinolin-2-ylmethyl)-amine] showed a melting point of 274 to 275 °C.
Work on `Cc1ccc2c3c(ccc2n1)OCC(CN(C)CCCCc1c[nH]c2ccc(F)cc12)O3` (stereo not shown) (as salt: hydrochloride) [Example 43, [4-(5-Fluoro-1H-indol-3-yl)-butyl]-methyl-(8-methyl-2,3-dihydro-[1,4]dioxino[2,3-f]quinolin-2-ylmethyl}-amine] yielded a melting point of 274 to 275 °C.
For `Cc1ccc2c3c(ccc2n1)OCC(CN(C)CCCCc1cn(C)c2ccc(F)cc12)O3` (stereo not shown) (as salt: hydrochloride) [Example 44, [4-(5-Fluoro-1-methyl-1H-indol-3-yl)-butyl]-methyl-(8-methyl-2,3-dihydro-[1,4]dioxino[2,3-f]quinolin-2-ylmethyl)-amine], the melting point was 275 to 276 °C.
`CCCN(CCCc1c[nH]c2ccc(F)cc12)CC1COc2ccc3nc(C)ccc3c2O1` (stereo not shown) (as salt: hydrochloride) [Example 45, [3-(5-Fluoro-1H-indol-3-yl)-propyl]-(8-methyl-2,3-dihydro-[1,4]dioxino[2,3-f]quinolin-2-ylmethyl)-propyl-amine] showed a melting point of 164 to 170 °C.
Work on `Cc1ccc2c3c(ccc2n1)OCC(CNCCCn1ccc2c(F)cccc21)O3` (stereo not shown) (as salt: hydrochloride) [Example 46, [3-(4-Fluoro-indol-1-yl)-propyl]-(8-methyl-2,3-dihydro-[1,4]dioxino[2,3-f]quinolin-2-ylmethyl)-amine] yielded a melting point of 203 to 206 °C.
